What was measured:
GCT cell lines = assay: XTT cell viability assay, GCT cell lines (pre-screen / summary); format: cell-based, Human; details: first pre-screen, SE and EC proxies TCam-2 and 2102EP, XTT
Method in brief: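 Seeding density of 5 × 10^3 cells per well applied to both tumour and fibroblast lines; compounds or vehicle followed after overnight attachment. Metabolic activity by XTT, four technical repeats, EC50 calculated.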

2102EP-R [1] = assay: Flow cytometry apoptosis (Annexin V/PI), 2102EP-R; format: cell-based, Human; details: EC50, 16 h, compared to the parental cell line
fibroblast control cells = assay: Flow cytometry apoptosis (Annexin V/PI), fibroblasts; format: cell-based, Human; details: EC50, 16 h
Method: (§1) For Annexin V/PI staining, cells were washed with Annexin V Binding Buffer before being resuspended in 70 µl Annexin V Binding Buffer and 2.5 μl Annexin V FITC-conjugate (both Miltenyi Biotec, Bergisch Gladbach, Germany) and 15 µg PI (Sigma-Aldrich, Taufkirchen, Germany) and incubated in the dark at room temperature for 15 min. 500 µl of Annexin V Binding Buffer was added before measurement. For the cell cycle analysis, cells were washed with PBS (phosphate buffered saline), fixed by ice cold 70% ethanol and stained with 2 µg/ml PI and 200 µg/ml RNaseA (Quiagen, Hilden, Germany 100 mg/ml) in PBS shortly before every measurement. At least 5 × 10^4 cells were counted and analyzed using the MACSQuant software v 2.13.0.

2102EP-R [2] = assay: Flow cytometry cell cycle (PI), 2102EP-R; format: cell-based, Human; details: EC50, 16 h
Method: as §1

GCT cells = assay: Flow cytometry cell cycle (PI), GCT cells; format: cell-based, Human; details: EC50, 16 h
Method: as §1

[3] = tested on: histone modifications in 2102EP cells; assay: Mass spectrometry analysis of histone modifications (Mod Spec); format: cell-based, Human
Method: 2102EP cells were treated with the EC50 concentrations for Quisinostat, JIB-04, Chaetocin, MZ-1, LP99, PRT4165, GSK343 and DMSO as solvent control. The cells were harvested via trypsinization after 16 h. The mass spectrometric analysis of histone modifications was outsourced to the Mod Spec service by Active Motif (Carlsbad, CA, USA). Histone extraction and mass spectrometric analysis was performed as described previously. Raw data were transformed into z-scores as the input. The heatmap was generated in R using ‘pheatmap’ with default settings and provided by Active Motif.

[4] = tested on: DNA methylation (5mC, 5hmC) in 2102EP cells; assay: DNA slot blot (5mC, 5hmC); format: cell-based, Human; details: 24 h
[5] = tested on: transcriptome of 2102EP cells; assay: RNA sequencing; format: cell-based, Human; details: 16 h
Method: Transcriptome analysis has been performed as previously described at the core facility ‘Genomics & Transcriptomics’ (Prof. Dr. Karl Köhrer, Biomedical Research Center, Heinrich Heine University, Düsseldorf, Germany) and has been publicly shared via GEO (https://www.ncbi.nlm.nih.gov/geo/, GSE189472). RNA samples were quantified and measured as previously described. Statistical analyses were performed using the ‘Differential Expression in two groups’ tool (version 1.02) (Qiagen) and the resulting p values were corrected for multiple testing by false discovery rate (FDR). Accompanying PCA and heatmap were generated using Qlucore Omics Explorer 3.7 (Qlucore AB, Lund, Sweden). Values of solvent controls wereaveraged from the studies GSE189472, GSE190792 and GSE190022 [95].

[6] = tested on: phosphorylated kinase targets in 2102EP cells; assay: Proteome Profiler Human Phospho-Kinase Array; format: cell-based; details: 16 h
Method: For the detection of phosphorylated kinase targets, the Proteome Profiler Human Phospho-Kinase Array Kit (R&D Systems, Abingdon, UK) was used according to the manufacturer’s instructions. The ChemiDoc Imaging System (Bio-Rad Laboratories, Feldkirchen, Germany) was used for detection. 2102EP cells were harvested after 16 h of treatment with the epi-drugs. Pixel density was analyzed using Fiji ImageJ 1.53c.

[7] = 2102EP cells, Mod Spec raw data

## Cc1ncsc1-c1ccc(CNC(=O)[C@@H]2C[C@@H](O)CN2C(=O)[C@@H](NC(=O)COCCOCCOCCNC(=O)C[C@@H]2N=C(c3ccc(Cl)cc3)c3c(sc(C)c3C)-n3c(C)nnc32)C(C)(C)C)cc1 [MZ-1]
GCT cell lines
  EC50 / effective concentration in words: nanomolar range
2102EP-R [1]
  apoptosis induction in 2102EP-R: did not induce apoptosis
Fibroblast control cells
  apoptosis induction in fibroblast control cells: only a weak apoptosis induction
2102EP-R [2]
  cell cycle arrest in 2102EP-R: induced a cell cycle arrest
GCT cells
  cell cycle phase accumulation in GCT cells: accumulated in the G0/G1 phase
[3]; [7]
  H1.4: K25AC, % of peptide pool: 0.008625%
  H1.4: K25ME1, % of peptide pool: 2.068%
  H1.4: K25ME2, % of peptide pool: 0.007907%
  H1.4: K25ME3, % of peptide pool: 0.004447%
  H1.4: K25UN, % of peptide pool: 97.9109%
  H2A1: K13AC, % of peptide pool: 0.01664%
  H2A1: K13UN, % of peptide pool: 99.9834%
  H2A1: K15AC, % of peptide pool: 0.002429%
  H2A1: K15UB, % of peptide pool: 0%
  H2A1: K15UN, % of peptide pool: 99.9976%
  H2A3: K13AC, % of peptide pool: 0.02309%
  H2A3: K13UN, % of peptide pool: 99.9769%
  H2A3: K15AC, % of peptide pool: 0.2972%
  H2A3: K15UB, % of peptide pool: 0%
  H2A3: K15UN, % of peptide pool: 99.7028%
  H2A: K5AC, % of peptide pool: 16.7692%
  H2A: K5UN, % of peptide pool: 83.2308%
  H2A: K9AC, % of peptide pool: 1.92%
  H2A: K9UN, % of peptide pool: 98.08%
  H2A: K36AC, % of peptide pool: 0.02873%
  H2A: K36UN, % of peptide pool: 99.9713%
  H3: K9AC, % of peptide pool: 0.8879%
  H3: K9ME1, % of peptide pool: 31.6276%
  H3: K9ME2, % of peptide pool: 28.3662%
  H3: K9ME3, % of peptide pool: 2.878%
  H3: K9UN, % of peptide pool: 36.24%
  H3: K14AC, % of peptide pool: 33.1456%
  H3: K14UN, % of peptide pool: 66.8544%
  H3: K18AC, % of peptide pool: 15.0157%
  H3: K18ME1, % of peptide pool: 0.179%
  H3: K18UN, % of peptide pool: 84.8052%
  H3: K23AC, % of peptide pool: 21.7451%
  H3: K23ME1, % of peptide pool: 0.008431%
  H3: K23UN, % of peptide pool: 78.2464%
  H3: K56AC, % of peptide pool: 0.06901%
  H3: K56ME1, % of peptide pool: 0.03638%
  H3: K56UN, % of peptide pool: 99.8946%
  H3: K64AC, % of peptide pool: 0.06102%
  H3: K64UN, % of peptide pool: 99.939%
  H3: K79AC, % of peptide pool: 0.05432%
  H3: K79ME1, % of peptide pool: 14.344%
  H3: K79ME2, % of peptide pool: 7.357%
  H3: K79ME3, % of peptide pool: 10.1837%
  H3: K79UN, % of peptide pool: 68.0612%
  H3: K122AC, % of peptide pool: 0.03608%
  H3: K122UN, % of peptide pool: 99.9639%
  H3: Q19ME1, % of peptide pool: 0.004515%
  H3: Q19UN, % of peptide pool: 99.9955%
  H3: Q55ME1, % of peptide pool: 0.1937%
  H3: Q55UN, % of peptide pool: 99.8063%
  H3: R42ME2, % of peptide pool: 1.387%
  H3: R42UN, % of peptide pool: 98.6131%
  H3: R49ME2, % of peptide pool: 3.092%
  H3: R49UN, % of peptide pool: 96.9084%
  H3R2UN: K4AC, % of peptide pool: 0.04633%
  H3R2UN: K4ME1, % of peptide pool: 16.637%
  H3R2UN: K4ME2, % of peptide pool: 0.2165%
  H3R2UN: K4ME3, % of peptide pool: 0.04192%
  H3R2UN: K4UN, % of peptide pool: 83.0582%
  H3R2UN: Q5ME1, % of peptide pool: 0.08148%
  H3R2UN: Q5UN, % of peptide pool: 99.9185%
  H3.1: K27AC, % of peptide pool: 2.915%
  H3.1: K27ME1, % of peptide pool: 46.4162%
  H3.1: K27ME2, % of peptide pool: 19.546%
  H3.1: K27ME3, % of peptide pool: 2.363%
  H3.1: K27UN, % of peptide pool: 28.7602%
  H3.1: K36AC, % of peptide pool: 0.09043%
  H3.1: K36ME1, % of peptide pool: 14.1558%
  H3.1: K36ME2, % of peptide pool: 48.8646%
  H3.1: K36ME3, % of peptide pool: 20.4408%
  H3.1: K36UN, % of peptide pool: 16.4484%
  H3.3: K27AC, % of peptide pool: 6.233%
  H3.3: K27M, % of peptide pool: 0%
  H3.3: K27ME1, % of peptide pool: 47.8396%
  H3.3: K27ME2, % of peptide pool: 15.5733%
  H3.3: K27ME3, % of peptide pool: 3.5424%
  H3.3: K27UN, % of peptide pool: 26.8119%
  H3.3: K36AC, % of peptide pool: 1.864%
  H3.3: K36ME1, % of peptide pool: 12.2128%
  H3.3: K36ME2, % of peptide pool: 53.2755%
  H3.3: K36ME3, % of peptide pool: 19.9611%
  H3.3: K36UN, % of peptide pool: 12.6864%
  H4: K5AC, % of peptide pool: 7.836%
  H4: K5UN, % of peptide pool: 92.164%
  H4: K8AC, % of peptide pool: 12.4074%
  H4: K8UN, % of peptide pool: 87.5926%
[3]; 2102EP cells, Mod Spec raw data, histone H4 K12 acetylated
  H4: K12AC, % of peptide pool: 7.206 % of peptide pool
[3]; 2102EP cells, Mod Spec raw data, histone H4 K12 unmodified
  H4: K12UN, % of peptide pool: 92.7945 % of peptide pool
[3]; 2102EP cells, Mod Spec raw data, histone H4 K16 acetylated
  H4: K16AC, % of peptide pool: 49.1827 % of peptide pool
[3]; 2102EP cells, Mod Spec raw data, histone H4 K16 unmodified
  H4: K16UN, % of peptide pool: 50.8173 % of peptide pool
[3]; 2102EP cells, Mod Spec raw data, histone H4 K20 acetylated
  H4: K20AC, % of peptide pool: 21.1654 % of peptide pool
[3]; 2102EP cells, Mod Spec raw data, histone H4 K20 dimethylated
  H4: K20ME2, % of peptide pool: 54.2158 % of peptide pool
[3]; 2102EP cells, Mod Spec raw data, histone H4 K20 monomethylated
  H4: K20ME1, % of peptide pool: 4.396 % of peptide pool
[3]; 2102EP cells, Mod Spec raw data, histone H4 K20 trimethylated
  H4: K20ME3, % of peptide pool: 2.467 % of peptide pool
[3]; 2102EP cells, Mod Spec raw data, histone H4 K20 unmodified
  H4: K20UN, % of peptide pool: 17.7556 % of peptide pool
[3]; 2102EP, EC50, 16 h, vs solvent control
  change of histone modifications of the expected mode of action (Mod Spec): increase in H3K64ac and H2A3K15ac
[4]
  5hmC levels increase compared to solvent control: 19%
[4]; solvent control set to 100%
  5mC levels compared to solvent control: 70%
[5]; sorted data log2>±1.5, FDR p<0.05
  EIF3CL Log2 fold change vs. DMSO: -2.31
[5]; unsorted data
  A1BG Log2 fold change vs. DMSO: -0.0752
  A1CF Log2 fold change vs. DMSO: -1.99
  A2M Log2 fold change vs. DMSO: 0.0948
[6]
  CREB, STAT3 and STAT5 phosphorylation and total levels of β-Catenin and HSP60: decreased
  ERK1/2 phosphorylation: decreased
